Patent publication US12186283B2, “Bismuth-thiol compositions and methods of use” (Microbion Corporation, priority 2018, dated 2025)
“And” between values parts separate entries of the source, which are not always exact repeats. Identical values can stand only once. Like-named read-outs stand apart in the source and are kept apart here.

Assays:
Pseudomonas aeruginosa = assay: Broth microdilution MIC (Example 11); type: cell-based; details: P. aeruginosa MMX 103 (ATCC 27853); QC
Candida spp. = assay: Broth microdilution MIC, yeast (Example 13), group statement and QC; type: cell-based; details: C. parapsilosis ATCC 22019, footnote b not given
Candida krusei = assay: Broth microdilution MIC, yeast (Example 13); type: cell-based; details: for MIC: Pichia kudriavzevii
P. aeruginosa = details: control strain ATCC 27853 P. aeruginosa; cited from earlier work
[1] = Aerosol particle size distribution of nebulized suspensions (cascade impactor / APS)
S. aureus ATCC 29213 = details: S. aureus ATCC 29213, QC organism; cited from earlier work
Klebsiella pneumoniae = details: K. pneumoniae ATCC BAA-1705, QC organism; cited from earlier work

CC(S)C(C)S.[Bi] (stereo not shown) [BisBDT, bismuth-2,3-butanedithiol]
MIC (Pseudomonas aeruginosa): 1 µg/mL | MIC 24 hr, second value of the pair x/y (Candida spp.; 24 hr): 2 | MIC 48 hr, second value of the pair x/y (Candida spp.; 48 hr): 4 | MIC 24 hr, second value of the pair x/y (Candida krusei; C. krusei ATCC 6258 (QC, Table 110), 24 hr, footnote b not given): 1 | MIC 48 hr, second value of the pair x/y (Candida krusei; C. krusei ATCC 6258 (QC, Table 110), 48 hr, footnote b not given): 4 | MIC 48 hr, first value of the pair x/y (Candida krusei; C. krusei ATCC 6258 (QC, Table 110), 48 hr, footnote b not given, probably MIC2): 1 | MIC (Candida krusei; read-out: MIC2 (50% inhibition)): 0.5 µg/mL | MIC (Candida krusei; read-out: MIC2 (50% inhibition), C. krusei MMX 7125, Susceptible): 0.5 µg/mL | MIC (Candida krusei; read-out: MIC2 (50% inhibition), C. krusei MMX 7155, Susceptible): 0.5 µg/mL | MIC (Candida krusei; read-out: MIC2 (50% inhibition), C. krusei MMX 7563, Susceptible): 0.5 µg/mL | MIC (Candida krusei; read-out: MIC2 (50% inhibition), C. krusei MMX 9878, MICA-I, VORI-I): 0.5 µg/mL

C1C[S][Bi]([S]CC[S][Bi]2[S]CC[S]2)[S]1 [BisEDT, bismuth-1,2-ethanedithiol]
Expected MIC: acceptable range (P. aeruginosa): 0.5 to 4 µg/mL | Expected MIC: goal (P. aeruginosa): 1 to 2 µg/mL | Particle Size (GSD) ([1]; BisEDT Lot # ED268-1-11-01, formulation 25 mg/mL, APS): 2.98 (1.8) μm | Particle Size (GSD) ([1]; BisEDT Lot # ED268-1-11-01, formulation 50 mg/mL, APS): 2.83 (1.9) μm | Particle Size (GSD) ([1]; BisEDT Lot # ED268-1-11-01, formulation 75 mg/mL, APS): 3.16 (1.70) μm | Particle Size (GSD) ([1]; BisEDT Lot # ED268-1-11-01, formulation 100 mg/mL, APS): 3.53 (1.71) μm | Particle Size (GSD) ([1]; BisEDT Lot # ED268-1-11-01, formulation 100* mg/mL (asterisk not explained), APS): 3.60 (1.71) μm | Particle Size (GSD) ([1]; BisEDT Lot # ED268-1-11-01 suspension, formulation 1 mg/mL, PARI LC PLUS nebulizer, APS): 1.65 (1.6) μm | Particle Size (GSD) ([1]; BisEDT Lot # XL-47-125, 300 mOsmol/kg vehicle, formulation 10 mg/mL): 1.61 (1.65) μm | Particle Size (GSD) ([1]; BisEDT Lot # XL-47-125, 300 mOsmol/kg vehicle, formulation 50 mg/mL): 2.79 (1.69) μm | Particle Size (GSD) ([1]; BisEDT Lot # XL-47-125, 300 mOsmol/kg vehicle, formulation 100 mg/mL (two tests)): 2.90 (1.67) μm and 2.60 (1.65) μm | MMAD ([1]; exposure aerosols of the rat efficacy study, In-Tox Mercer Impactor): 1.54 μm | MIC, QC range (S. aureus ATCC 29213): (0.12-1) μg/mL

C[C@@H](O)[C@H]1C(=O)N2C(C(=O)O)=C(S[C@@H]3CN[C@H](C(=O)N(C)C)C3)[C@H](C)[C@H]12 [MEM]
MIC, QC range (Klebsiella pneumoniae): (8-64) μg/mL
